The record followed here is patent US9718808B2, “Inhibitors of the renal outer medullary potassium channel” (Merck Sharp & Dohme Corp., priority 2014, dated 2017).

The target in the assay is ROMK (Kir1.1) channel (Homo sapiens (Human), UniProt P48048). Kind of assay: Thallium Flux Assay. Type of assay: cell-based. The method, then: A Thallium Flux Assay was performed on each of the final product compounds of the Examples. This assay has been described previously; see, e.g., PCT Published Application WO 2013/062900.
Sequence of ROMK (Kir1.1) channel (P48048 whole entry): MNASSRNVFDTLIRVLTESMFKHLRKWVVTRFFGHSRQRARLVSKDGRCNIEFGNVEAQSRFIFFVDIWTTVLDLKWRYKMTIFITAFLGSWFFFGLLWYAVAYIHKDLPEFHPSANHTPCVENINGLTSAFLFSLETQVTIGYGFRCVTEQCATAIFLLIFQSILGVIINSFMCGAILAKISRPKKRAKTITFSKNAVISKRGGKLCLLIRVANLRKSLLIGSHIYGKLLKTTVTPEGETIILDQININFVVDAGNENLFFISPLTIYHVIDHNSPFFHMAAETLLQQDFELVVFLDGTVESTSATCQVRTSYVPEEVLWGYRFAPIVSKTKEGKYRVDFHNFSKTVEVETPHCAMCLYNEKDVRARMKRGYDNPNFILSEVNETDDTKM

As usually defined, the IC50 is the concentration that inhibits the measured activity by half. Lower therefore signals inhibition by little substance. In the case of `CC1=C(N2CC[C@]3(CC[C@@H](NCc4ccc5c(c4)C(C)n4nnnc4-5)CC3)C2=O)COC1=O` (some centres unmarked) [Example 53, (5r,8r)-2-(4-methyl-5-oxo-2,5-dihydrofuran-3-yl)-8-(((5-methyl-5H-tetrazolo[5,1-a]isoindol-7-yl)methyl)amino)-2-azaspiro[4.5]decan-1-one], the half-inhibitory concentration (IC50) worked out at 19 nM.

Molecule `CC1C[C@]2(CC[C@@H](NCc3cnc(-n4cnnn4)cn3)CC2)C(=O)N1C1=CC(=O)OC1` (some centres unmarked) [Example 50, (5r,8r)-3-methyl-2-(5-oxo-2,5-dihydrofuran-3-yl)-8-({[5-(1H-tetrazol-1-yl)pyrazin-2-yl]methyl}amino)-2-azaspiro[4.5]decan-1-one] yielded an IC50 of 39 nM.

On to `CC1=C(N2CC[C@]3(CC[C@@H](NCc4ccc5c(c4C)Cn4nnnc4-5)CC3)C2=O)COC1=O` [Example 54, (5r,8r)-2-(4-methyl-5-oxo-2,5-dihydrofuran-3-yl)-8-(((6-methyl-5H-tetrazolo[5,1-a]isoindol-7-yl)methyl)amino)-2-azaspiro[4.5]decan-1-one], for which the IC50 worked out at 32 nM. This IC50 and that of the molecule before are within 1.5-fold of each other.

As for `C[C@H]1C[C@]2(CC[C@H](NCc3ccc(-n4cnnn4)nc3)CC2)C(=O)N1C1=CC(=O)OC1` [Example 22, (3S,5s,8R)-3-methyl-2-(5-oxo-2,5-dihydrofuran-3-yl)-8-({[6-(1H-tetrazol-1-yl)pyridin-3-yl]methyl}amino)-2-azaspiro[4.5]decan-1-one], the IC50 turned out to be 130 nM. Against the preceding molecule, the IC50 is about 4.1-fold higher.

In turn, `CC1=C(N2CC[C@]3(CC[C@H](N(C)CCc4ccc5c(c4)COC5=O)CC3)C2=O)COC1=O` [Example 105] displayed an IC50 of 150 nM.

Molecule `CC1=C(N2CC[C@]3(CC[C@@H](N[C@H](C)c4ccc(-n5cnnn5)nn4)CC3)C2=O)COC1=O` [Example 15, (5R,8r)-2-(4-methyl-5-oxo-2,5-dihydrofuran-3-yl)-8-({(1R)-1-[6-(1H-tetrazol-1-yl)pyridazin-3-yl]ethyl}amino)-2-azaspiro[4.5]decan-1-one] returned an IC50 of 92 nM. This IC50 lies about 1.6-fold lower than the previous one.

The molecule `CC1=C(N2CC[C@]3(CC[C@H](N(C)[C@H](C)c4ccc(-n5cnnn5)nc4)CC3)C2=O)COC1=O` [Example 93] came in with an IC50 of 510 nM.

In the case of `CC1=C(N2CC[C@]3(CC[C@H](NCc4ccc(-n5cnnn5)cn4)CC3)C2=O)COC1=O` [Example 7A, (5s,8s)-2-(4-methyl-5-oxo-2,5-dihydrofuran-3-yl)-8-({[5-(1H-tetrazol-1-yl)pyridin-2-yl]methyl}amino)-2-azaspiro[4.5]decan-1-one], the IC50 came to 24 nM.

`C[C@H]1C[C@]2(CC[C@@H](N(C)Cc3ccc(-n4cnnn4)nn3)CC2)C(=O)N1C1=CC(=O)OC1` [Example 104, (3S,5r,8S)-8-(((6-(1H-tetrazol-1-yl)pyridazin-3-yl)methyl)(methyl)amino)-3-methyl-2-(5-oxo-2,5-dihydrofuran-3-yl)-2-azaspiro[4.5]decan-1-one] showed a half-inhibitory concentration (IC50) of 41 nM.

`CC1=C(N2C(=O)[C@]3(CC[C@H](N(C)Cc4ccc5c(c4)Cn4nnnc4-5)CC3)C[C@@H]2C)COC1=O` [Example 120] had an IC50 of 43 nM.

Molecule `CC1=C(N2CC[C@]3(CC[C@H](N[C@H](CO)c4ccc(-n5cnnn5)nc4)CC3)C2=O)COC1=O` [Example 77] came in with an IC50 of 360 nM.

In turn, `CC1=C(N2CC[C@]3(CC[C@H](NCc4ccc(-n5ncnn5)nn4)CC3)C2=O)COC1=O` [Example 74, (5s,8s)-8-(((6-(2H-tetrazol-2-yl)pyridazin-3-yl)methyl)amino)-2-(4-methyl-5-oxo-2,5-dihydrofuran-3-yl)-2-azaspiro[4.5]decan-1-one] gave an IC50 of 210 nM. Against the preceding molecule, the IC50 is about 1.7-fold lower.

Regarding `CC1=C(N2CC[C@]3(CC[C@@H](N[C@H](C)c4ccc(-n5cnnn5)nc4)CC3)C2=O)COC1=O` [Example 10, (5R,8r)-8-(((R)-1-(6-(1H-tetrazol-1-yl)pyridin-3-yl)ethyl)amino)-2-(4-methyl-5-oxo-2,5-dihydrofuran-3-yl)-2-azaspiro[4.5]decan-1-one], the IC50 is 18 nM.

For the molecule `CC1=C(N2CC[C@]3(CC[C@@](C)(N(C)Cc4cnc(-n5cnnn5)cn4)CC3)C2=O)COC1=O` [Example 129], 45 nM corresponded to half-maximal inhibition (IC50).
